Legend:
[1] = target: T1, human recombinant AT2 receptor (Homo sapiens, UniProt P50052); assay: Binding to AT2 receptor, radiometric scintillation assay (Eurofins); details: ligand 125I CGP 42112A, tested at 1, 10, 100 and 1000 nM
T1 construct: purchased Eurofins ITEM26
T1 sequence (P50052 1-363): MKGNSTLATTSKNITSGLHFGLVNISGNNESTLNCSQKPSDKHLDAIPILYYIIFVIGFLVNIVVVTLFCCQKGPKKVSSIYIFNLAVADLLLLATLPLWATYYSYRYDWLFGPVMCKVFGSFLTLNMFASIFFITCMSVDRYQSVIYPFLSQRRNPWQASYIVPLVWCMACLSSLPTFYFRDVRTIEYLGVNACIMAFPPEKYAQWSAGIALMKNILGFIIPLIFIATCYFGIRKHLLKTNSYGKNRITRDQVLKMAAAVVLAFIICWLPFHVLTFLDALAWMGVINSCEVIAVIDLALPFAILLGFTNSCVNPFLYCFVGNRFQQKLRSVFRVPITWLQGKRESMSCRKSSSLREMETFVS
Experimental: Compounds were evaluated for binding to the human recombinant AT2 and AT1 receptor according to Eurofins protocol ITEM26 and ITEM24 using a radiometric scintillation assay.

CYP3A4&5 = assay: CYP inhibition in human liver microsomes, CYP3A4&5 (testosterone); assay type: in vitro ADME; details: probe testosterone, substrate testosterone, read-out: CYP3A4&5 testosterone Inh %
Experimental: (§1) The following substrates were used: CYP1A phenacetin, CYP2B6 bupropion, CYP2C8 paclitaxel and amodiaquine, CYP2C9 diclofenac, CYP2C19 omeprazole, CYP2D6 dextromethorphan, CYP3A midazolam and testosterone. At the end of the incubation, the formation of metabolite was monitored by HPLC-MS/MS as the peak area response.

CYP2D6 = target: T2, CYP2D6 (Homo sapiens, UniProt P10635); assay: CYP inhibition in human liver microsomes, CYP2D6; assay type: in vitro ADME; details: probe dextromethorphan, substrate dextromethorphan, read-out: CYP2D6 Inh %
T2 construct: incubated with human liver microsomes; tissue Eurofins ITEMG232; host or cells: human liver microsomes
T2 sequence (P10635 whole entry): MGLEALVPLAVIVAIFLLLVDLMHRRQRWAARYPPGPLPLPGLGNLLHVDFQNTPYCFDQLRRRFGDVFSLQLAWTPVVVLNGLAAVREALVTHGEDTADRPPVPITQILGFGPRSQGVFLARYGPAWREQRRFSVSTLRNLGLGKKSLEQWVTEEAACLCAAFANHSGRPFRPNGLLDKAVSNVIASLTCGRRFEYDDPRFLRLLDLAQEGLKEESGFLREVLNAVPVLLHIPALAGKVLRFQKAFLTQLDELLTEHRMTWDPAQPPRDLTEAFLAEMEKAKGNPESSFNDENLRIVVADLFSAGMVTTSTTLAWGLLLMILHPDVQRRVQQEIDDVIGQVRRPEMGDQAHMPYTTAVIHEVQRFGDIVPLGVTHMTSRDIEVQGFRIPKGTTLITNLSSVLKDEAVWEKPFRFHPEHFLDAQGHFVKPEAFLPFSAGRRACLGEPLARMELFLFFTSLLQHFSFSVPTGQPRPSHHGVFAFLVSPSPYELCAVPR
Method in brief: (§2)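 Substrate is added to human liver microsomes (CYP2C8: paclitaxel, amodiaquine; CYP2C9: diclofenac; CYP2D6: dextromethorphan). The mixture is incubated. Product is then monitored by HPLC-MS/MS peak area.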

CYP3A4 = CYP3A4 (Homo sapiens, UniProt P08684); assay: CYP inhibition in human liver microsomes, CYP3A4 (midazolam); assay type: in vitro ADME; parameters: incubated with human liver microsomes; tissue Eurofins ITEMG232; host or cells: human liver microsomes; details: probe midazolam, substrate midazolam, read-out: CYP3A4 midazolam Inh %
Chain of CYP3A4 (P08684 whole entry): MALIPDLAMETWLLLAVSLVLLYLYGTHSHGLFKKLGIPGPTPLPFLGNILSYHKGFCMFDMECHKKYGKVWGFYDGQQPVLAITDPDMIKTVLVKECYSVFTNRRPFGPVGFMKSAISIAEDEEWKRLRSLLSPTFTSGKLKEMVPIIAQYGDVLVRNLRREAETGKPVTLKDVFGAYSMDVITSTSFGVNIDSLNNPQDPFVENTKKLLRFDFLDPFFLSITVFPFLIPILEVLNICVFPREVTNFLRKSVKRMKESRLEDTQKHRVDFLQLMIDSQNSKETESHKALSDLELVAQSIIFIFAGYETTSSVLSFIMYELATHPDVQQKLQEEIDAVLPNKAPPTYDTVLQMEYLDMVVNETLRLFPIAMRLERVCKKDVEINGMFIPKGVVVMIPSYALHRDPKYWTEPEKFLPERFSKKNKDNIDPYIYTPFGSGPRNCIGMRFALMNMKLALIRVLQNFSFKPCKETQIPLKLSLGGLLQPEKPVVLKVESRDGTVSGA
Experimental: as §1

CYP2B6 = target: T3, CYP2B6 (Homo sapiens, UniProt P20813); assay: CYP inhibition in human liver microsomes, CYP2B6; assay type: in vitro ADME; details: probe bupropion, substrate bupropion, read-out: CYP2B6 Inh %
T3 construct: incubated with human liver microsomes; tissue Eurofins ITEMG232; host or cells: human liver microsomes
T3 sequence (P20813 1-491): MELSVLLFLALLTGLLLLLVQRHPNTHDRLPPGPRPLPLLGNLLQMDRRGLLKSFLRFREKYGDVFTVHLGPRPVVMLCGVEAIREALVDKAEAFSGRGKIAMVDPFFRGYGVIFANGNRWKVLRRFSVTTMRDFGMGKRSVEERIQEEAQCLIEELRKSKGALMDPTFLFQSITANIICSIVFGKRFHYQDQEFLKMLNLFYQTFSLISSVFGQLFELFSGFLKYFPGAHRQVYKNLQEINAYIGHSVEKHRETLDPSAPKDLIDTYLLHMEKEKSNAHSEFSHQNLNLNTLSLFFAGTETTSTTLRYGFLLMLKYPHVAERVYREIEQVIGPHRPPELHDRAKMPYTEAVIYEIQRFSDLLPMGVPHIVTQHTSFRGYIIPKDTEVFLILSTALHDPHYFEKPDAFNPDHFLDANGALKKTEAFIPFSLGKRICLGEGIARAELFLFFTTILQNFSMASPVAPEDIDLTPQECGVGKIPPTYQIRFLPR
Experimental: as §1

CYP1A = target: T4, CYP1A (Homo sapiens, UniProt P05177); assay: CYP inhibition in human liver microsomes, CYP1A; assay type: in vitro ADME; details: probe phenacetin, substrate phenacetin, read-out: CYP1A Inh %
T4 construct: incubated with human liver microsomes; tissue Eurofins ITEMG232; host or cells: human liver microsomes
T4 sequence (P05177 1-516): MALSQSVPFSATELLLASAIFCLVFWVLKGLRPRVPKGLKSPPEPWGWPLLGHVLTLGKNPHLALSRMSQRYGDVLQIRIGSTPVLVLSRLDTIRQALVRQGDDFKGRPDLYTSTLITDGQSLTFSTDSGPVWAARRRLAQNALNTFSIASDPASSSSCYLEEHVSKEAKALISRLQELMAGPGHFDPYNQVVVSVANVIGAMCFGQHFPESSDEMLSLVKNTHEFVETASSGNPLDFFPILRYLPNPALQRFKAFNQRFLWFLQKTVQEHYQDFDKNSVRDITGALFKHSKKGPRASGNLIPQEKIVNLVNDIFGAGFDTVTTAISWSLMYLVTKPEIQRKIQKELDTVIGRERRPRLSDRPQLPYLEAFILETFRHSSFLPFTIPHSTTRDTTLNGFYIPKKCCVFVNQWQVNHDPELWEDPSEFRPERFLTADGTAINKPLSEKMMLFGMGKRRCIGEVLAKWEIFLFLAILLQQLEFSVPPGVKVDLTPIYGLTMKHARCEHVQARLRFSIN
Experimental: as §1

CYP2C8 = target: T5, CYP2C8 (Homo sapiens, UniProt P10632); assay: CYP inhibition in human liver microsomes, CYP2C8; assay type: in vitro ADME; details: probe paclitaxel and amodiaquine, substrate paclitaxel and amodiaquine, read-out: CYP2C8 Inh %
T5 construct: incubated with human liver microsomes; tissue Eurofins ITEMG232; host or cells: human liver microsomes
T5 sequence (P10632 1-490): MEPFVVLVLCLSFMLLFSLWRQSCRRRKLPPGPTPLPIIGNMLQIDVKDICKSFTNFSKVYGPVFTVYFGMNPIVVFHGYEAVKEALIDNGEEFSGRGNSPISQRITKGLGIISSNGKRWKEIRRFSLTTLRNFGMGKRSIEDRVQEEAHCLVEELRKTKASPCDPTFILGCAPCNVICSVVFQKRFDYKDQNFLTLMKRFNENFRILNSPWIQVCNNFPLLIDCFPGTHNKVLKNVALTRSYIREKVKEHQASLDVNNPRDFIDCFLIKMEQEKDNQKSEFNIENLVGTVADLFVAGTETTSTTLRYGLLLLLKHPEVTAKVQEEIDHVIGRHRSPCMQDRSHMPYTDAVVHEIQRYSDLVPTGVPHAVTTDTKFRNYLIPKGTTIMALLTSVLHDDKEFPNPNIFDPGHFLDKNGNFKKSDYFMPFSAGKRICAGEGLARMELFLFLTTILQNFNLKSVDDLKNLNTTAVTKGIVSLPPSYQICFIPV
Method in brief: as §2

CYP2C9 = CYP2C9 (Homo sapiens, UniProt P11712); assay: CYP inhibition in human liver microsomes, CYP2C9; assay type: in vitro ADME; parameters: incubated with human liver microsomes; tissue Eurofins ITEMG232; host or cells: human liver microsomes; details: probe diclofenac, substrate diclofenac, read-out: CYP2C9 Inh %
Chain of CYP2C9 (P11712 whole entry): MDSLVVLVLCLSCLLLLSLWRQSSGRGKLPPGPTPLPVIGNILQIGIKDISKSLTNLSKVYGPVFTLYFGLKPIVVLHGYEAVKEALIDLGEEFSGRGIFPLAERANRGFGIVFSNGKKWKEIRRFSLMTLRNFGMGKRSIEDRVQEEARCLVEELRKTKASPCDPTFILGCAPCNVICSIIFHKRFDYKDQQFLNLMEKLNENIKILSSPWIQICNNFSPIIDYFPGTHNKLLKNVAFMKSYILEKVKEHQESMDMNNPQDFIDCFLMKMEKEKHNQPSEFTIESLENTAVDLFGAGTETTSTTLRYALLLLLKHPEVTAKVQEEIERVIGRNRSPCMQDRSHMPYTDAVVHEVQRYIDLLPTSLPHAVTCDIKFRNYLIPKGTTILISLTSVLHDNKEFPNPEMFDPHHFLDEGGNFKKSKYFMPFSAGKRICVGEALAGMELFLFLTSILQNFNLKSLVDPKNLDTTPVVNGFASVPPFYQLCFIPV
Method in brief: as §2

CYP2C19 = target: T6, CYP2C19 (Homo sapiens, UniProt P33261); assay: CYP inhibition in human liver microsomes, CYP2C19; assay type: in vitro ADME; details: probe omeprazole, substrate omeprazole, read-out: CYP2C19 Inh %
T6 construct: incubated with human liver microsomes; tissue Eurofins ITEMG232; host or cells: human liver microsomes
T6 sequence (P33261 whole entry): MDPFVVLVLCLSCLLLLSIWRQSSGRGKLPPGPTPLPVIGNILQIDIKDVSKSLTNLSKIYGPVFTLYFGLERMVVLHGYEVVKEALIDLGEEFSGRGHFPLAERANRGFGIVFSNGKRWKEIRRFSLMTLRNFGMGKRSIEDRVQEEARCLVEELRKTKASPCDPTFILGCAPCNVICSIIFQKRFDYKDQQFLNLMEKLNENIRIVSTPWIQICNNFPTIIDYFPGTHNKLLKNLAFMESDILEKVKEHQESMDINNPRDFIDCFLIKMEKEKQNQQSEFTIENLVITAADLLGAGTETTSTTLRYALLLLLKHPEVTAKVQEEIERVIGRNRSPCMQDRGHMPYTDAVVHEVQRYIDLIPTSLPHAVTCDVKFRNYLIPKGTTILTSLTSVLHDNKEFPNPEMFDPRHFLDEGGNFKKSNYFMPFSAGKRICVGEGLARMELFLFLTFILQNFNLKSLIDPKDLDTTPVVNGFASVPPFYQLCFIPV
Experimental: as §1

| SMILES | IC50 [1] [nM] | inhibition at 10 µM (CYP3A4&5) [%] | inhibition at 10 µM (CYP2D6) [%] | inhibition at 10 µM (CYP3A4) [%] | inhibition at 10 µM (CYP2B6) [%] | inhibition at 10 µM (CYP1A) [%] | inhibition at 10 µM (CYP2C8) [%] | inhibition at 10 µM (CYP2C9) [%] | inhibition at 10 µM (CYP2C19) [%] |
| --- | --- | --- | --- | --- | --- | --- | --- | --- | --- |
| CCCNC(=O)NS(=O)(=O)c1sc(CC(C)C)cc1-c1ccc(Cn2ccnc2CC)c(F)c1.O=C(O)C(F)(F)F [Example 33, 1-[(3-{4-[(2-ethyl-1H-imidazol-1-yl)methyl]-3-fluorophenyl}-5-(2-methylpropyl)thiophen-2-yl)sulfonyl]-3-propylurea trifluoroacetic acid] | 5.1 | 11 | 18 | -37 | 37 | 14 | 69 | 34 | 26 |
| Cc1nccn1Cc1ccc(-c2cc(CC(C)C)sc2S(=O)(=O)NC(=O)NCC(C)C)cc1F.O=C(O)C(F)(F)F [Example 39, 1-[(3-{3-fluoro-4-[(2-methyl-1H-imidazol-1-yl)methyl]phenyl}-5-(2-methylpropyl)thiophen-2-yl)sulfonyl]-3-(2-methylpropyl)urea trifluoroacetic acid] | 8.6 | 27 | 10 | 18 | 28 | -2 | 51 | 44 | 56 |

— patent publication US12435072B2, “Compounds” (Vicore Pharma AB, priority 2019, dated 2025)
